# Experimental data from patent publication US8741884B2, “Compounds for the treatment of hepatitis C” (priority 2010, dated 2014).
# Where two headings read alike, the source gives them in different places.
# Test system: HCV pseudoparticles (genotype 1a HCV E1 and E2 envelope, H77C isolate)
# Assay: microbe, parasite or virus in culture
# Type: cell-based
# [1] = Hepatitis C virus, Huh-7, 48 h, class symbol, HCV pseudoparticles genotype 1a (H77C), Huh7 cells, luciferase 2 days after infection, average of duplicates
# [2] = Hepatitis C virus, Huh-7, 48 h, numeric value, HCV pseudoparticles genotype 1a (H77C), Huh7 cells, luciferase 2 days after infection, average of duplicates
SMILES,EC50 (read-out: EC50) [nM],EC50 [1] [nM],EC50 [2] [nM]
COC(=O)c1ccc2cc1OCCCCOC[C@H](c1ccccc1)Nc1nc(nc(OCC(F)(F)F)n1)N2 [Example 1003],1000 to 50000,,
CC(C)(C)OC(=O)N[C@H](CCNC(=O)c1ccc2cc1OCCCCCCOc1ccc(cc1)CNc1nc(nc(OCC(F)(F)F)n1)N2)C(=O)O [Example 1412],,0.1 to 100,24.8
O=C(O)c1ccc2cc1OCCCCCCOc1ccc(cc1)CNc1nc(nc(OCC(F)(F)F)n1)N2 [Example 1302],,1000 to 50000,
O=C(NCC1(CN2CCCC2)CC1)c1ccc2cc1OCCCCNCCCOc1ccc(cc1)CNc1nc(nc(OCC(F)(F)F)n1)N2 [Example 3017],,0.1 to 100,
CCN1CCCOc2ccc(cc2)CNc2nc(nc(OCC(F)(F)F)n2)Nc2ccc(C(=O)NCC3(CN4CCCC4)CC3)c(c2)OCCC1 [Example 3011],,0.1 to 100,
CC(C)NC(=O)N1CCCOc2ccc(cc2)CNc2nc(nc(OCC(F)(F)F)n2)Nc2ccc(C(=O)NCC3(CN4CCCC4)CC3)c(c2)OCCC1 [Example 3009],,0.1 to 100,
COC(=O)[C@H](CNC(=O)OC(C)(C)C)NC(=O)c1ccc2cc1OCCCCCCOc1ccc(cc1)CNc1nc(nc(OCC(F)(F)F)n1)N2 [Example 1321],,0.1 to 100,
O=C(NCC1CCNC1)c1ccc2cc1OCCCCCCCCOc1ccc(cc1)CNc1nc(nc(OCC(F)(F)F)n1)N2 (centres unmarked) [Example 1151],,0.1 to 100,
N=C(N)NCCC[C@H](NC(=O)c1ccc2cc1OCCOCCOCCOc1ccc(cc1)CNc1nc(nc(OCC(F)(F)F)n1)N2)C(=O)O [Example 1602],,0.1 to 100,
CC(C)C(=O)N1CCCCOc2cc(ccc2C(=O)NCC2(CN3CCCC3)CC2)Nc2nc(nc(OCC(F)(F)F)n2)NCc2ccc(cc2)OCCC1 [Example 3023],,0.1 to 100,
CC(C)(C)OC(=O)N1CCCOc2cccc(c2)CNc2nc(nc(OCC(F)(F)F)n2)Nc2ccc(C(=O)NCC3(CN4CCCC4)CC3)c(c2)OCCC1 [Example 3024],,100 to 1000,
CC(C)(C)OC(=O)N1CCCOc2ccc(cc2)CNc2nc(nc(OCC(F)(F)F)n2)Nc2ccc(C(=O)O)c(c2)OCCC1 [Example 3002],,0.1 to 100,
CC(C)(C)OC(=O)NC1(C(=O)O)CCN(C(=O)c2ccc3cc2OCCCCCCCCOc2ccc(cc2)CNc2nc(nc(OCC(F)(F)F)n2)N3)C1 (centres unmarked) [Example 1018],,1000 to 50000,5640
O=C(NCC1(CN2CCCC2)CC1)c1ccc2cc1OCCCCCCNc1nc(nc(OCC(F)(F)F)n1)N2 [Example 4001],,1000 to 50000,42600
CC(C)(C)OC(=O)NC[C@@H](NC(=O)c1ccc2cc1OCCCCCCOc1ccc(cc1)CNc1nc(nc(OCC(F)(F)F)n1)N2)C(=O)O [Example 1556],,100 to 1000,101
COC(=O)[C@H](CNS(C)(=O)=O)NC(=O)c1ccc2cc1OCCCCCCOc1ccc(cc1)CNc1nc(nc(OCC(F)(F)F)n1)N2 [Example 1702],,0.1 to 100,
CN(C)CC(C)(C)CNC(=O)c1ccc2cc1OCCCCCCOc1cccc(c1)CNc1nc(nc(OCC(F)(F)F)n1)N2 [Example 1804],,100 to 1000,239
NC[C@H](NC(=O)c1ccc2cc1OCCCCCCOc1ccc(cc1)CNc1nc(nc(OCC(F)(F)F)n1)N2)C(=O)O [Example 1559],0.1 to 100,,
O=C(NCC1CCNC1)c1ccc2cc1OCCCCCCOc1ccc(cc1)CNc1nc(nc(OCC(F)(F)F)n1)N2 (centres unmarked) [Example 1501],,0.1 to 100,
CN(C)CC(C)(C)CNC(=O)c1ccc2cc1OCC=CCOc1ccc(cc1)CNc1nc(nc(OCC(F)(F)F)n1)N2 [Example 2007],,100 to 1000,159

SMILES,EC50 (read-out: EC50) [nM],EC50 [1] [nM],EC50 [2] [nM]
COC(=O)[C@H](CCN)NC(=O)c1ccc2cc1OCCCCCCOc1ccc(cc1)CNc1nc(nc(OCC(F)(F)F)n1)N2 [Example 1502],,0.1 to 100,
CC(C)(C)OC(=O)N1CCC(CNC(=O)c2ccc3cc2OCCCCCCOc2ccc(cc2)CNc2nc(nc(OCC(F)(F)F)n2)N3)C1 (centres unmarked) [Example 1305],,0.1 to 100,
COC(=O)c1ccc2cc1OCCCCCCOc1cccc(c1)CNc1nc(nc(OCC(F)(F)F)n1)N2 [Example 1803],,1000 to 50000,
COC(=O)c1ccc2cc1OCCCCOc1cccc(c1)CNc1nc(nc(OCC(F)(F)F)n1)N2 [Example 1801],,100 to 1000,
CC(C)(C)OC(=O)NC(CNC(=O)c1ccc2cc1OCCCCCCOc1ccc(cc1)CNc1nc(nc(OCC(F)(F)F)n1)N2)C(=O)O (centres unmarked) [Example 1409],,0.1 to 100,
COC(=O)C(NC(=O)c1ccc2cc1OCCCCCCOc1ccc(cc1)CNc1nc(nc(OCC(F)(F)F)n1)N2)C1CCCN(C(=O)OC(C)(C)C)C1 (centres unmarked) [Example 1304],,0.1 to 100,
CNC(=O)N1CCCOc2ccc(cc2)CNc2nc(nc(OCC(F)(F)F)n2)Nc2ccc(C(=O)NCC3(CN4CCCC4)CC3)c(c2)OCCC1 [Example 3007],,0.1 to 100,
O=C(NC[C@H](NC(=O)c1ccc2cc1OCCCCCCOc1ccc(cc1)CNc1nc(nc(OCC(F)(F)F)n1)N2)C(=O)O)c1ccccc1 [Example 1562],,0.1 to 100,28.7
COC(=O)c1ccc2cc1OCCOCCOCCOc1ccc(cc1)CNc1nc(nc(OCC(F)(F)F)n1)N2 [Example 1007],,1000 to 50000,9840
N=C(N)NCCC[C@@H](NC(=O)c1ccc2cc1OCCOCCOCCOc1ccc(cc1)CNc1nc(nc(OCC(F)(F)F)n1)N2)C(=O)O [Example 1603],,0.1 to 100,
O=C(NCC1(CN2CCCC2)CC1)c1ccc2cc1OCCCNCCCOc1cccc(c1)CNc1nc(nc(OCC(F)(F)F)n1)N2 [Example 3025],,0.1 to 100,
FC(F)(F)COc1nc2nc(n1)Nc1cccc(c1)OCCCCOc1cccc(c1)N2 [Example 2004],,0.1 to 100,
NC[C@@H](NC(=O)c1ccc2cc1OCCCCCCOc1ccc(cc1)CNc1nc(nc(OCC(F)(F)F)n1)N2)C(=O)O [Example 1555],,100 to 1000,
COC(=O)c1ccc2cc1OCC=CCOc1ccc(cc1)CNc1nc(nc(OCC(F)(F)F)n1)N2 [Example 2005],,0.1 to 100,
COc1nc2nc(n1)OCc1cccc(c1)Nc1nc(nc(OCC(F)(F)F)n1)NCCN2 [Example 1002],,1000 to 50000,
O=C(NCC1(CN2CCCC2)CC1)c1ccc2cc1OCCCCCCCCOc1ccc(cc1)CNc1nc(nc(OCC(F)(F)F)n1)N2 [Example 1102],,0.1 to 100,
O=C(NCCC[C@H](NC(=O)c1ccc2cc1OCCCCCCOc1ccc(cc1)CNc1nc(nc(OCC(F)(F)F)n1)N2)C(=O)O)OCc1ccccc1 [Example 1413],,0.1 to 100,
COC(=O)C(NC(=O)c1ccc2cc1OCCOCCOCCOc1ccc(cc1)CNc1nc(nc(OCC(F)(F)F)n1)N2)C1CCCNC1 (centres unmarked) [Example 1607],,0.1 to 100,
CN(C)CC(C)(C)CNC(=O)c1ccc2cc1OCCOCCOCCOc1ccc(cc1)CNc1nc(nc(OCC(F)(F)F)n1)N2 [Example 1011],,0.1 to 100,
CC(C)CN1CCCOc2ccc(cc2)CNc2nc(nc(OCC(F)(F)F)n2)Nc2ccc(C(=O)NCC3(CN4CCCC4)CC3)c(c2)OCCC1 [Example 3013],,0.1 to 100,

SMILES,EC50 (read-out: EC50) [nM],EC50 [1] [nM],EC50 [2] [nM]
FC(F)(F)COc1nc2nc(n1)NC1(CC1)c1ccc(cc1)OCCCCOc1cccc(c1)N2 [Example 2009],,0.1 to 100,18
O=C(O)c1ccc2cc1OCCCC=CCCCOc1ccc(cc1)CNc1nc(nc(OCC(F)(F)F)n1)N2 [Example 1020],1000 to 50000,,
CN(C)CC(C)(C)CNC(=O)c1ccc2cc1OCCCCCCOc1ccc(cc1)CNc1nc(nc(OCC(F)(F)F)n1)N2 [Example 1202],,0.1 to 100,
COC(=O)[C@H](CCNC(=O)OC(C)(C)C)NC(=O)c1ccc2cc1OCCCCCCOc1ccc(cc1)CNc1nc(nc(OCC(F)(F)F)n1)N2 [Example 1307],,0.1 to 100,
CC(=O)NC[C@H](NC(=O)c1ccc2cc1OCCCCCCOc1ccc(cc1)CNc1nc(nc(OCC(F)(F)F)n1)N2)C(=O)O [Example 1711],,0.1 to 100,
CC(C)(C)OC(=O)N1CCCOc2ccc(cc2)CNc2nc(nc(OCC(F)(F)F)n2)Nc2ccc(C(=O)NCC3(CN4CCCC4)CC3)c(c2)OCCC1 [Example 3003],,0.1 to 100,
COC(=O)CC1CCN(C(=O)c2ccc3cc2OCCCCCCCCOc2ccc(cc2)CNc2nc(nc(OCC(F)(F)F)n2)N3)C1 (centres unmarked) [Example 1103],,1000 to 50000,
CC(=O)N1CCCCOc2cc(ccc2C(=O)NCC2(CN3CCCC3)CC2)Nc2nc(nc(OCC(F)(F)F)n2)NCc2ccc(cc2)OCCC1 [Example 3022],,0.1 to 100,
N=C(N)NC[C@H](NC(=O)c1ccc2cc1OCCCCCCOc1ccc(cc1)CNc1nc(nc(OCC(F)(F)F)n1)N2)C(=O)O [Example 1403],,0.1 to 100,
O=C(NCC1(C(=O)O)CCNCC1)c1ccc2cc1OCCCCCCOc1ccc(cc1)CNc1nc(nc(OCC(F)(F)F)n1)N2 [Example 1504],,0.1 to 100,
O=C(O)CC1CCN(C(=O)c2ccc3cc2OCCCCCCCCOc2ccc(cc2)CNc2nc(nc(OCC(F)(F)F)n2)N3)C1 (centres unmarked) [Example 1132],,1000 to 50000,
COC(=O)c1ccc2cc1OCCCC=CCCCOc1ccc(cc1)CNc1nc(nc(OCC(F)(F)F)n1)N2 [Example 1019],100 to 1000,,
N=C(N)NCCC[C@H](NC(=O)c1ccc2cc1OCCCCCCOc1ccc(cc1)CNc1nc(nc(OCC(F)(F)F)n1)N2)C(N)=O [Example 1313],,0.1 to 100,
O=C1NCCNc2nc(nc(OCC(F)(F)F)n2)Nc2cccc(c2)CNC(=O)OCCO1 [Example 1014],,1000 to 50000,
CC(C)(C)OC(=O)NC[C@H](NC(=O)c1ccc2cc1OCCOCCOCCOc1ccc(cc1)CNc1nc(nc(OCC(F)(F)F)n1)N2)C(=O)O [Example 1608],,0.1 to 100,56.2
O=C(CNC(=O)c1ccc2cc1OCCCCCCCCOc1ccc(cc1)CNc1nc(nc(OCC(F)(F)F)n1)N2)NS(=O)(=O)C1CC1 [Example 1133],,100 to 1000,
O=C(O)CCCCNC(=O)c1ccc2cc1OCCCCCCOc1ccc(cc1)CNc1nc(nc(OCC(F)(F)F)n1)N2 [Example 1408],,0.1 to 100,
CC(C)(C)OC(=O)N1CCC(C(NC(=O)c2ccc3cc2OCCCCCCOc2ccc(cc2)CNc2nc(nc(OCC(F)(F)F)n2)N3)C(=O)O)CC1 (centres unmarked) [Example 1406],,0.1 to 100,
O=C(NC(C(=O)O)C1CCNC1)c1ccc2cc1OCCCCCCOc1ccc(cc1)CNc1nc(nc(OCC(F)(F)F)n1)N2 (centres unmarked) [Example 1553],0.1 to 100,,
O=C1COCC(=O)NCc2cccc(c2)Nc2nc(nc(OCC(F)(F)F)n2)NCCN1 [Example 1015],,1000 to 50000,3060
